Data from US6355799B1, “Substituted benzene compounds, process for their preparation, and herbicidal and defoliant compositions containing them” (ISK Americas Incorporated, priority 1997, dated 2002).

Assays:
Format in all cases: in vivo
[1] = test system: field corn (Zea mays L., var. Dekalb 535, CORN); assay: Pre-emerge test, crop safety; conditions: rating scale 0-100, 14 days after application
In short: (§1)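 Visual ratings on a 0-100 scale (0 no damage, 100 all plants dead) were taken at 14 days after treatment. Rates of 15-1000 g ai/ha in acetone, 187 l/ha, were sprayed onto soil one day after planting (pre-emerge) or onto 2-3 leaf plants with 0.25% v/v surfactant (post-emerge).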

[2] = test system: upland rice (Oryza sp., var. Tebonnet, RICE); assay: Pre-emerge test, crop safety; conditions: rating scale 0-100, 14 days after application
In short: as §1

[3] = test system: field corn (Zea mays L., var. Dekalb 535, CORN); assay: Post-emerge test, crop safety; conditions: rating scale 0-100 (0 no damage, 100 complete death), 14 days after application
In short: (§2)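 Compounds in acetone were track-sprayed at 15-1000 g ai/ha (187 l/ha) on sandy loam pots: pre-emerge one day after seeding, post-emerge at 2-3 leaf stage with 0.25% v/v non-ionic surfactant. Phytotoxicity was rated 14 days later on a 0 (no damage) to 100 (complete death) scale.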

[4] = test system: upland rice (Oryza sp., var. Tebonnet, RICE); assay: Post-emerge test, crop safety; conditions: rating scale 0-100 (0 no damage, 100 complete death), 14 days after application
In short: as §2

[5] = test system: redroot pigweed (Amaranthus retroflexus, AMARE); assay: Pre-emerge test, greenhouse herbicide activity screening; conditions: rating scale 0-100, 14 days after application
In short: as §2

[6] = test system: large crabgrass (Digitaria sanguinalis, DIGSA); assay: Post-emerge test, greenhouse herbicide activity screening; conditions: rating scale 0-100 (0 no damage, 100 complete death), 14 days after application
In short: (§3)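 Applied at 15–1000 g ai/ha from acetone in 187 l/ha spray volume. Post-emergence applications included 0.25% v/v non-ionic surfactant and reached plants sown 8–21 days before. Pre-emergence applications were incorporated by surface watering. Efficacy or crop damage was rated on a 0–100 scale after 14 days.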

[7] = test system: green foxtail (Setaria viridis, SETVI); assay: as above; conditions: rating scale 0-100 (0 no damage, 100 complete death), 14 days after application
In short: as §3

[8] = test system: velvetleaf (Abutilon theophrasti, ABUTH); assay: as above; conditions: rating scale 0-100 (0 no damage, 100 complete death), 14 days after application
In short: as §3

[9] = test system: sicklepod (Cassia obtusifolia, CASOB); assay: as above; conditions: rating scale 0-100 (0 no damage, 100 complete death), 14 days after application
In short: as §3

[10] = test system: redroot pigweed (Amaranthus retroflexus, AMARE); assay: as above; conditions: rating scale 0-100 (0 no damage, 100 complete death), 14 days after application
In short: as §3

[11] = test system: johnsongrass (Sorghum halepense, SORHA); assay: as above; conditions: rating scale 0-100 (0 no damage, 100 complete death), 14 days after application
In short: as §3

[12] = test system: barnyardgrass (Echinochloa crus-galli, ECHCG); assay: as above; conditions: rating scale 0-100 (0 no damage, 100 complete death), 14 days after application
In short: as §3

[13] = test system: ivyleaf morningglory (Ipomoea hederacea, IPOHE); assay: as above; conditions: rating scale 0-100 (0 no damage, 100 complete death), 14 days after application
In short: as §3

[14] = test system: lambsquarters (Chenopodium album, CHEAL); assay: as above; conditions: rating scale 0-100 (0 no damage, 100 complete death), 14 days after application
In short: as §3

[15] = test system: large crabgrass (Digitaria sanguinalis, DIGSA); assay: Pre-emerge test, greenhouse herbicide activity screening; conditions: rating scale 0-100, 14 days after application
In short: as §2

[16] = test system: green foxtail (Setaria viridis, SETVI); assay: as above; conditions: rating scale 0-100, 14 days after application
In short: as §2

[17] = test system: velvetleaf (Abutilon theophrasti, ABUTH); assay: as above; conditions: rating scale 0-100, 14 days after application
In short: as §2

[18] = test system: sicklepod (Cassia obtusifolia, CASOB); assay: as above; conditions: rating scale 0-100, 14 days after application
In short: as §2

[19] = test system: johnsongrass (Sorghum halepense, SORHA); assay: as above; conditions: rating scale 0-100, 14 days after application
In short: as §2

[20] = test system: barnyardgrass (Echinochloa crus-galli, ECHCG); assay: as above; conditions: rating scale 0-100, 14 days after application
In short: as §2

[21] = test system: ivyleaf morningglory (Ipomoea hederacea, IPOHE); assay: as above; conditions: rating scale 0-100, 14 days after application
In short: as §2

[22] = test system: lambsquarters (Chenopodium album, CHEAL); assay: as above; conditions: rating scale 0-100, 14 days after application
In short: as §2

SMILES: C#CCOC(=O)C(Cl)Cc1c(OC)c(Cl)cc(F)c1-n1c(=O)cc(C(F)(F)F)n(C)c1=O (single isomer, unassigned) [14-19]
- Pre-emerge phytotoxicity rating, crop damage CORN ([1]; 63 g ai/ha): 0
- Pre-emerge phytotoxicity rating, crop damage CORN ([1]; 250 g ai/ha): 0
- Pre-emerge phytotoxicity rating, crop damage RICE ([2]; 63 g ai/ha): 0
- Pre-emerge phytotoxicity rating, crop damage RICE ([2]; 250 g ai/ha): 0
- Post-emerge phytotoxicity rating CORN (crop damage) ([3]; Rate 63 g ai/ha): 0
- Post-emerge phytotoxicity rating CORN (crop damage) ([3]; Rate 250 g ai/ha): 40
- Post-emerge phytotoxicity rating RICE (crop damage) ([4]; Rate 63 g ai/ha): 0
- Post-emerge phytotoxicity rating RICE (crop damage) ([4]; Rate 250 g ai/ha): 20
- Pre-emerge herbicidal activity, phytotoxicity rating AMARE ([5]; 63 g ai/ha): 0
- Pre-emerge herbicidal activity, phytotoxicity rating AMARE ([5]; 250 g ai/ha): 90
- Post-emerge Herbicidal Activity, phytotoxicity rating DIGSA ([6]; Rate 63 g ai/ha): 100
- Post-emerge Herbicidal Activity, phytotoxicity rating DIGSA ([6]; Rate 250 g ai/ha): 100
- Post-emerge Herbicidal Activity, phytotoxicity rating SETVI ([7]; Rate 63 g ai/ha): 0
- Post-emerge Herbicidal Activity, phytotoxicity rating SETVI ([7]; Rate 250 g ai/ha): 30
- Post-emerge Herbicidal Activity, phytotoxicity rating ABUTH ([8]; Rate 63 g ai/ha): 60
- Post-emerge Herbicidal Activity, phytotoxicity rating ABUTH ([8]; Rate 250 g ai/ha): 100
- Post-emerge Herbicidal Activity, phytotoxicity rating CASOB ([9]; Rate 63 g ai/ha): 40
- Post-emerge Herbicidal Activity, phytotoxicity rating CASOB ([9]; Rate 250 g ai/ha): 70
- Post-emerge Herbicidal Activity, phytotoxicity rating AMARE ([10]; Rate 63 g ai/ha): 90
- Post-emerge Herbicidal Activity, phytotoxicity rating AMARE ([10]; Rate 250 g ai/ha): 100
- Post-emerge Herbicidal Activity, phytotoxicity rating SORHA ([11]; Rate 63 g ai/ha): 0
- Post-emerge Herbicidal Activity, phytotoxicity rating SORHA ([11]; Rate 250 g ai/ha): 0
- Post-emerge Herbicidal Activity, phytotoxicity rating ECHCG ([12]; Rate 63 g ai/ha): 100
- Post-emerge Herbicidal Activity, phytotoxicity rating ECHCG ([12]; Rate 250 g ai/ha): 100
- Post-emerge Herbicidal Activity, phytotoxicity rating IPOHE ([13]; Rate 63 g ai/ha): 30
- Post-emerge Herbicidal Activity, phytotoxicity rating IPOHE ([13]; Rate 250 g ai/ha): 90
- Post-emerge Herbicidal Activity, phytotoxicity rating CHEAL ([14]; Rate 63 g ai/ha): 90
- Post-emerge Herbicidal Activity, phytotoxicity rating CHEAL ([14]; Rate 250 g ai/ha): 100
- Pre-emerge herbicidal activity, phytotoxicity rating DIGSA ([15]; 63 g ai/ha): 0
- Pre-emerge herbicidal activity, phytotoxicity rating DIGSA ([15]; 250 g ai/ha): 80
- Pre-emerge herbicidal activity, phytotoxicity rating SETVI ([16]; 63 g ai/ha): 0
- Pre-emerge herbicidal activity, phytotoxicity rating SETVI ([16]; 250 g ai/ha): 0
- Pre-emerge herbicidal activity, phytotoxicity rating ABUTH ([17]; 63 g ai/ha): 0
- Pre-emerge herbicidal activity, phytotoxicity rating ABUTH ([17]; 250 g ai/ha): 50
- Pre-emerge herbicidal activity, phytotoxicity rating CASOB ([18]; 63 g ai/ha): 0
- Pre-emerge herbicidal activity, phytotoxicity rating CASOB ([18]; 250 g ai/ha): 0
- Pre-emerge herbicidal activity, phytotoxicity rating SORHA ([19]; 63 g ai/ha): 0
- Pre-emerge herbicidal activity, phytotoxicity rating SORHA ([19]; 250 g ai/ha): 0
- Pre-emerge herbicidal activity, phytotoxicity rating ECHCG ([20]; 63 g ai/ha): 0
- Pre-emerge herbicidal activity, phytotoxicity rating ECHCG ([20]; 250 g ai/ha): 0
- Pre-emerge herbicidal activity, phytotoxicity rating IPOHE ([21]; 63 g ai/ha): 0
- Pre-emerge herbicidal activity, phytotoxicity rating IPOHE ([21]; 250 g ai/ha): 0
- Pre-emerge herbicidal activity, phytotoxicity rating CHEAL ([22]; 63 g ai/ha): 0
- Pre-emerge herbicidal activity, phytotoxicity rating CHEAL ([22]; 250 g ai/ha): 80
